Read-outs that look alike come from different tables or passages of the source.
How the values were obtained:
Human PBMCs [1] = test: LPS-mediated cytokine induction in human PBMCs (BioRad Multiplex Cytokine Platform); type: cell-based; set-up: TNF-α release in PBMCs (FIG. 9) / G-CSF release in PBMCs (FIG. 9): dose or concentration left out as unconfirmed; conditions: for IC50: PBMC, 1 h pirfenidone pretreatment, LPS, optimal expression at 8 hours
Procedure: Human PBMCs (10^5 cells per well) were pretreated with pirfenidone (5 mM to 5 μM) for one hour in a 96-well plate and then stimulated with LPS ([…] to 0.01 ng/ml) for 1, 2, 8, or 24 hours at 37° C. Subsequently, cells were spun and supernatants collected and assayed for protein expression using the BioRad Multiplex Cytokine Platform, which enables 17 different cytokines to be analyzed simultaneously: G-CSF, GM-CSF, IFN-γ, IL-1β, IL-2, IL-4, IL-5, IL-6, IL-7, IL-8, IL-10, IL-12 (p70), IL-13, IL-17, MCP-1, MIP-1β, and TNF-α.

Human PBMCs [2] = test: p38 inhibitors: TLR-agonist-mediated TNF-α and G-CSF release from human PBMCs; type: cell-based; conditions: 1 h pretreatment, then LPS, Fibrin, LTA, PG or CpG for 24 hours
Description: The effect of various p38 inhibitors on LPS-mediated TNF-α and G-CSF release from human PBMCs was examined. Briefly, human PBMCs (10^5 cells per well) were pretreated with pirfenidone, a hydroxyl-pirfenidone derivative, SB202190 (commercially available p38 inhibitor), or SB203580 (commercially available p38 inhibitor) for one hour in a 96-well plate and then stimulated with lipopolysaccharide (LPS, binds TLR4), Fibrin (binds TLR4), lipoteichoic acid (LTA, binds TLR2), peptidoglycan (PG, binds TLR2), or CpG (bacterial DNA, binds TLR9) for 24 hours at 37° C. Subsequently, cells were spun and supernatants collected and assayed for G-CSF expression.
Each TLR agonist alone is set to 1 (positive control) and the subsequent release of G-CSF in the presence of p38 inhibitors is determined relative to the positive control.

[3] = in the presence of pirfenidone (lmM)

Compound	induction of expression of IL-2, IL-4, IL-5, IL-7, IL-12, IL-13, or IL-17 (Human PBMCs [1]; human PBMCs stimulated with LPS)	IC50 (Human PBMCs [1]; human PBMCs, read-out: pirfenidone IC50 for IL-1β (LPS-mediated cytokine induction)) [µM]	IC50 (Human PBMCs [1]; human PBMCs, read-out: pirfenidone IC50 for TNF-α (LPS-mediated cytokine induction)) [µM]	LPS-mediated release of G-CSF (Human PBMCs [1]; human PBMCs)	LPS-mediated release of GM-CSF (Human PBMCs [1]; human PBMCs)	LPS-mediated release of IFN-γ (Human PBMCs [1]; human PBMCs)	LPS-mediated release of IL-1β (Human PBMCs [1]; human PBMCs)	LPS-mediated release of IL-10 (Human PBMCs [1]; human PBMCs)	LPS-mediated release of MCP-1 (Human PBMCs [1]; human PBMCs)	LPS-mediated release of TNF-α (Human PBMCs [1]; human PBMCs)	constitutive (but not LPS-mediated) expression of IL-6 (Human PBMCs [1]; human PBMCs)	constitutive (but not LPS-mediated) expression of IL-8 (Human PBMCs [1]; human PBMCs)	constitutive (but not LPS-mediated) expression of MIP-1β (Human PBMCs [1]; human PBMCs)	LPS-induced expression of G-CSF augmented by (Human PBMCs [1]; [3]) [%]	LPS-induced expression of IL-10 augmented by (Human PBMCs [1]; [3]) [%]	TNF-α expression in PBMCs (FIG. 1) (Human PBMCs [1]; pirfenidone 185 μg/mL and LPS 1 μg/mL)	G-CSF release in PBMCs (FIG. 9) (Human PBMCs [1]; pirfenidone and LPS)	TNF-α release in PBMCs (FIG. 9) (Human PBMCs [1]; pirfenidone and LPS)	TLR-induced G-CSF release (FIG. 12, fold induction relative to TLR agonist alone) (Human PBMCs [2])
lipopolysaccharide [LPS]	did not induce																		
Cc1ccc(=O)n(-c2ccccc2)c1 [pirfenidone, 5-methyl-1-phenyl-2-(1H)-pyridone]		~2500	~1000	augmented	inhibited	inhibited	inhibited	augmented	augmented	inhibited	inhibited	inhibited	inhibited	100	35	reduced	increased	decreased	augmented
